Like-named read-outs stand apart in the source and are kept apart here.
How the values were obtained:
[1] = system: human umbilical vein endothelial cell (HUVEC) cell line; settings: ref 55 (Huang et al.); cited from earlier work
A549 cancer cell line = settings: ref 55 (Huang et al.); cited from earlier work
A549 cells [2] = test: Mitotic activity (Ki67 index) by immunolabelling and confocal microscopy; type: cell-based, human; settings: 24 h, vs control
Description: The studied biscoumarin derivatives were added to cells seeded on 12-well μ-Chamber slides for 24 h. After cultivation with the derivatives, the samples (both the control without the derivatives and experimental groups) were washed with a 0.1 M PBS solution buffer to remove all non-cell-absorbed derivative residues and fixed with 4% paraformaldehyde for 20 min at RT. Alternatively, cells were incubated with Mitotracker Red (0.5 µM; Thermo Fisher Scientific, Waltham, MA, USA) for 30 min at 37 °C, washed with 0.1 M PBS, and fixed with 4% paraformaldehyde for 20 min at RT. For the quantification of proliferative activity and programmed cell death, samples were incubated overnight at 4 °C with the mouse anti-Ki67 antibody (NCL-L-Ki67-MM1, 1:100, Leica Biosystems, Wetzlar, Germany) and rabbit anti-cleaved PARP (cat. no. 94885, 1:100, Cell Signaling, Danvers, MA, USA) diluted in 0.1 M PBS containing 1% normal donkey serum (Jackson Immunoresearch, Cambridgeshire, Great Britain) and 0.3% Triton-X 100. […]
All samples were evaluated using a Leica TCS SP5X confocal system (Leica Microsystems, Mannheim, Germany). The biscoumarin derivatives were visualized in cells using a 405 nm laser, and the fluorescence was captured in the range of 420–480 nm with identical exposure parameters for all samples. […] Microphotographs were taken with a 40× objective lens (NA = 0.75; voxel size 223 × 223 nm) and a 63× oil lens (NA = 1.4; voxel size 171 × 171 nm); the images were captured and analyzed using LAS AF software (Leica Microsystems, Wetzlar, Germany).
The proliferative activity of cells incubated with the studied derivatives was expressed as a Ki67 index. In all samples (n = 3 samples per each experimental group), the number of Ki67^+ nuclei was calculated in groups of 100 randomly selected cells. […]

hBChE (human plasma) = molecular target: T1, hBChE (human plasma) (Homo sapiens, UniProt P06276); test: biochemical; type: biochemical; settings: human plasma BChE, mean of at least three experiments; for IC50: read-out: IC50 ± S.E.M. hBChE
T1 construct: Human plasma was used as a source of BChE; from tissue; host or cells: human plasma from heparinized blood
Description: (§1) Human recombinant AChE (EC 3.1.1.7), 5,5′-dithiobis(2-nitrobenzoic acid) (Ellman′s reagent, DTNB), phosphate buffer (PB, 0.1 M, pH 7.4), and acetylthiocholine (ATC) and butyrylthiocholine (BTC), were purchased from Sigma-Aldrich, Prague, Czech Republic. Human plasma was used as a source of BChE and was prepared from heparinized human blood. The blood was centrifuged for 20 min (4 °C, 2300× g) on a Hettich Universal 320R centrifuge. The plasma was separated and stored at […]. Polystyrene Nunc 96-well microplates with a flat bottom shape (ThermoFisher Scientific, Waltham, MA, USA) were used for measuring purposes.
(§2) All of the assays were carried out in a 0.1 M phosphate buffer, pH 7.4. The assay medium (100 µL) consisted of 40 µL of 0.1 M phosphate buffer (pH 7.4), 20 µL of 0.01 M DTNB, 10 µL of the enzyme, and 20 µL of 0.01 M substrate ATC/BTC iodide solution).
(§3) The tested compounds were preincubated for 5 min prior to use. The reaction was initiated immediately upon addition of 20 µL of the substrate. […] Each concentration was assayed in triplicate. Software GraphPad Prism 5 (San Diego, CA, USA) was used in the evaluation of the statistical data.

human recombinant AChE = molecular target: T2, human recombinant AChE (Homo sapiens, UniProt P22303); test: biochemical; type: biochemical; settings: mean of at least three experiments; for IC50: read-out: IC50 ± S.E.M. hAChE
T2 construct: purchased Sigma-Aldrich, Prague, Czech Republic
Description: as §1, §2, §3

A549 cells [3] = test: MTT assay, A549; type: cell-based, human; settings: for Metabolic activity of A549 cells (in words): 10 to 100 μM, 24 and 48 h; for IC50: Homo sapiens
Description: (§4) Human lung carcinoma cell line A549 and CCD-18Co colon fibroblasts were purchased from the American Type Culture Collection (ATCC, Rockville, MD, USA). The A549 cells were cultured in a complete RPMI-1640 medium (Sigma-Aldrich, St. Louis, MO, USA), and CCD-18Co cells were cultured in an MEM medium (PAN-Biotech GmbH, Aidenbach, Germany). The media were supplemented with 10% fetal bovine serum (FBS; Biosera, Nuaille, France) and antibiotics (1% Antibiotic-Antimycotic 100× and 50 × 10^−3 g l^−1 gentamicin; Biosera) at 37 °C, 95% humidity, and 5% CO2.
(§5) Prior to the selected treatments, cells were seeded on 12-well μ-Chamber slides (ibidi GmbH, Martinsried, Germany) and 6 and/or 96-well plates (TPP, Trasadingen, Switzerland) and left to settle for 24 h. The biscoumarin derivative solutions (at concentrations ranging from 10–100 µM) were then added to cells for 24 or 48 h, and analysis was subsequently performed.
(§6) MTT assays were performed in order to evaluate changes in the metabolic activity of cells that had occurred as a consequence of treatment with the biscoumarin derivatives. A549 cells (15 × 10^3 cells/cm^2) and CCD-18Co ([…]) were seeded in 96-well microplates. The cells were treated for 24 and 48 h with different concentrations (10, 25, 35, 50, 65, 75, and 100 µM) of the derivatives. After the treatment, the MTT (3-(4,5-dimethylthiazol-2-yl)-2,5-diphenyltertrazolium bromide) solution in PBS (5 mg mL^−1) was added to each well. […]. The absorbance of formazan (λ = 584 nm) was measured using a BMG FLUOstar Optima spectrometer (BMG Labtech GmbH, Offenburg, Germany). The results were evaluated as percentages of the absorbance of the untreated control. Results are presented as the average percentage of cells from three independent experiments. IC50 values for the derivatives were extrapolated from a sigmoidal fit (dose–response curve) to the metabolic activity data using OriginPro 8.5.0 SR1 (OriginLab Corp., Northampton, MA, USA).

in vitro = settings: for Papp: PAMPA; for Papp / Pe ± S.E.M.: pH 7.4; for CNS Predicted Availability: classification from PAMPA-BBB Pe; for Pe ± S.E.M.: PAMPA-BBB
Description: The parallel artificial membrane permeability assay (PAMPA) is used as a non-cell-based in vitro assay to predict BBB penetration and is carried out in a coated 96-well membrane filter. In our assays, the filter membrane of the donor plate was coated with PBL (Polar Brain Lipid, Avanti, Denver, CO, USA) in dodecane (4 µL of 20 mg mL^−1 PBL in dodecane), and the acceptor well was filled with 300 µL of phosphate buffered saline (PBS) (pH 7.4; VA). The tested compounds were first dissolved in DMSO, and the resulting mixture was diluted with PBS (pH 7.4) to reach the final concentration (40–100 µM) in the donor well. […] Three hundred microliters of the donor solution (VD) were added to the donor wells, and the donor filter plate was carefully placed onto the acceptor plate to ensure that the coated membrane was “in contact” with both the donor solution and the acceptor buffer. The test compound diffused from the donor well through the polar brain lipid membrane (area = 0.28 cm^2) to the acceptor well. The concentration of the tested compound in both the donor and acceptor wells was assessed after 3, 4, 5, and 6 h of incubation, respectively, in quadruplicate using a UV plate reader Synergy HT (Biotek, Winooski, VT, USA) at the maximum absorption wavelength of each compound. Additionally, solutions at the theoretical equilibrium of the given compound (i.e., the theoretical concentration if the donor and acceptor compartment were simply combined) were also prepared.

A549 cells [4] = test: Cell cycle analysis (flow cytometry, PI); type: cell-based, human; settings: 35 and 65 µM, 24 h
Description: For flow cytometric analysis of the cell cycle distribution, floating and adherent cells were harvested together 24 h after treatment with the derivatives (35 and 65 µM), washed in cold PBS, fixed in cold 70% ethanol, and stored overnight at −20 °C. Prior to analysis, the cells were washed twice in PBS, resuspended in a staining solution (0.1% Triton X-100, 0.137 g L^−1 ribonuclease A and 0.02 g L^−1 propidium iodide—PI), and incubated in dark conditions at RT for 30 min. The DNA content was analyzed using a BD FACSCalibur flow cytometer (Becton Dickinson, San Jose, CA, USA) with a 488 nm argon-ion excitation laser, and fluorescence was detected using a 585/42 nm band-pass filter (FL-2). ModFit 3.0 software (Verity Software House, Topsham, ME, USA) was used to generate DNA content frequency histograms and to quantify the percentage of cells in the individual cell cycle phases. The results are presented as the average ratio of cells in the individual phase to all cells from three independent experiments.

CCD-18Co fibroblasts = test: MTT assay, CCD-18Co; type: cell-based; settings: for IC50: Homo sapiens, CCD-18Co
Description: as §4, §5, §6

[5] = A549, 24 h, read-out: IC50 A549 24 h
[6] = A549, read-out: IC50 A549 48 h, 48 h

T1 sequence (P06276 29-602): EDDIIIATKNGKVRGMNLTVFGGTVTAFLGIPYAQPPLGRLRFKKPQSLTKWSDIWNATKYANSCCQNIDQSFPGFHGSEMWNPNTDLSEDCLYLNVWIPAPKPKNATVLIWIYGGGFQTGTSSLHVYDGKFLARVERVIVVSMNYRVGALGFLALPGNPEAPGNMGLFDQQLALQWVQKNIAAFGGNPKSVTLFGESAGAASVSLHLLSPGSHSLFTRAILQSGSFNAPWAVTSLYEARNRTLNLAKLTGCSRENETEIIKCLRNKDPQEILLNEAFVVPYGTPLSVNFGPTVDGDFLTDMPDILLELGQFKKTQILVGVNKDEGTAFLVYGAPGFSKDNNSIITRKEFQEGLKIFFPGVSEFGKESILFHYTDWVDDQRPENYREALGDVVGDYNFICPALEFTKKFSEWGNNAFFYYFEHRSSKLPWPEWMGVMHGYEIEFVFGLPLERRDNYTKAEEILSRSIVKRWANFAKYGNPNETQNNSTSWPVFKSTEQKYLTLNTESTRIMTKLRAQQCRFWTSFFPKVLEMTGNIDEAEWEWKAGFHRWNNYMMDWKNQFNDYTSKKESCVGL
T2 sequence (P22303 32-614): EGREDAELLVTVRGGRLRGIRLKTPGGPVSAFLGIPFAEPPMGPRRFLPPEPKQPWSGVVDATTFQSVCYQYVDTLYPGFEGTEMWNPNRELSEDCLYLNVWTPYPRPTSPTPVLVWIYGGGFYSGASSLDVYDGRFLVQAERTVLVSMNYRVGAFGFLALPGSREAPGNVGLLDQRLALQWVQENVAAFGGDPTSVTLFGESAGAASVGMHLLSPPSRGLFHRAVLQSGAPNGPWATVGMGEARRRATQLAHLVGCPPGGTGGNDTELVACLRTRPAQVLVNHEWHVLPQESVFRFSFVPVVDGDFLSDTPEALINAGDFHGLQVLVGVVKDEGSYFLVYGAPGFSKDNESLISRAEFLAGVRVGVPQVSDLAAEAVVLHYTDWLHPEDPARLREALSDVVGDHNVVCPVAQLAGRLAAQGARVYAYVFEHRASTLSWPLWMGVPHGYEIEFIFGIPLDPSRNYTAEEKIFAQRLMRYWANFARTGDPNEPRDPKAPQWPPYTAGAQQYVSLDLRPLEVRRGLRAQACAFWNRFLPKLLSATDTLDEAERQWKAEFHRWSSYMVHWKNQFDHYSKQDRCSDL

| SMILES | IC50 (hBChE (human plasma)) [µM] | IC50 (human recombinant AChE) [µM] | Metabolic activity of A549 cells (in words) (A549 cells [3]) | IC50 (A549 cells [3]; [5]) [µM] | IC50 (A549 cells [3]; [6]) [µM] | Papp (in vitro) [×10⁻⁶ cm/s] | CNS Predicted Availability (in vitro) | further results |
| --- | --- | --- | --- | --- | --- | --- | --- | --- |
| O=c1[nH]cc(F)c(=O)[nH]1 [5-fluorouracil] |  |  |  |  |  |  |  | IC50 [1]: 25.1 µM; IC50 (A549 cancer cell line): 36.3 µM |
| COC(=O)Cc1cc(=O)oc2cc(OCCCN3CCN(CCNC(=O)Cc4cc(=O)oc5cc(O)ccc45)CC3)ccc12 [12a] | > 500 | > 500 | did not lose the ability to convert dye | > 100 | > 100 | 1.53 ± 0.64 | CNS− (CNS−: low BBB permeation predicted with Pe (×10^−6 cm s^−1) < 2.0) | Number of proliferating cells (Ki67 index), in words (A549 cells [2]): no significant changes; IC50 ± S.E.M. hBChE (hBChE (human plasma)): did not show inhibitory activity; IC50 ± S.E.M. hAChE (human recombinant AChE): did not show inhibitory activity |
| COC(=O)Cc1cc(=O)oc2cc(OCCCCN3CCN(CCNC(=O)Cc4cc(=O)oc5cc(O)ccc45)CC3)ccc12 [12b] | > 500 | > 500 | did not lose the ability to convert dye | > 100 | > 100 |  | CNS− (CNS−: low BBB permeation predicted with Pe (×10^−6 cm s^−1) < 2.0) | IC50 ± S.E.M. hBChE (hBChE (human plasma)): did not show inhibitory activity; IC50 ± S.E.M. hAChE (human recombinant AChE): did not show inhibitory activity |
| COC(=O)Cc1cc(=O)oc2cc(OCCCCCCN3CCN(CCNC(=O)Cc4cc(=O)oc5cc(O)ccc45)CC3)ccc12 [12c, Methyl 2-[7-({7-[4-(2-{[2-(7-hydroxy-2-oxo-2H-4-chromenyl)acetyl]amino}ethyl)piperazino]hexyl}oxy)-2-oxo-2H-4-chromenyl]acetate] | > 500 | 88.4 ± 12.6 | did not lose the ability to convert dye | > 100 | > 100 | 2.96 ± 0.73 | CNS+/− (CNS +/−: BBB permeation uncertain with Pe (×10^−6 cm s^−1) from 4.0 to 2) | Cell cycle distribution, G0/G1 phase (in words) (A549 cells [4]): increased the accumulation of cell population in the G0/G1 phase; Pe ± S.E.M. (in vitro): 2.0–4.0 10^−6 cm s^−1 |
| COC(=O)Cc1cc(=O)oc2cc(OCCCCCCCN3CCN(CCNC(=O)Cc4cc(=O)oc5cc(O)ccc45)CC3)ccc12 [12d] | 49 | 6.3 ± 0.4 | significant decrease | 94 | 58 | 2.11 ± 1.19 | CNS+/− (CNS +/−: BBB permeation uncertain with Pe (×10^−6 cm s^−1) from 4.0 to 2) | Cell cycle distribution, G0/G1 phase (in words) (A549 cells [4]): increase in the percentage of the cell population in the G0/G1 phase; Metabolic activity of CCD-18Co cells (in words) (CCD-18Co fibroblasts; 24 or 48 h): significantly reduced metabolic activity only at a concentration of 100 μM; IC50 (CCD-18Co fibroblasts; 24 h, read-out: IC50 CCD-18Co 24 h): > 100 µM; IC50 (CCD-18Co fibroblasts; read-out: IC50 CCD-18Co 48 h, 48 h): > 100 µM; IC50 (CCD-18Co fibroblasts; time not stated, read-out: IC50 CCD-18Co): > 100 µM; Pe ± S.E.M. (in vitro): 2.0–4.0 10^−6 cm s^−1 |
| CNC(=C[N+](=O)[O-])NCCSCc1ccc(CN(C)C)o1 [Ranitidine, reference compound] |  |  |  |  |  |  | CNS− (CNS−: low BBB permeation predicted with Pe (×10^−6 cm s^−1) < 2.0) |  |
| Nc1c2c(nc3ccccc13)CCCC2 [Tacrine, tacrine, reference compound] |  |  |  |  |  |  | CNS+ (CNS+: high BBB permeation predicted with Pe (×10^−6 cm s^−1) > 4.0) |  |
| N.N.[Cl][Pt][Cl] [cisplatin] |  |  |  |  |  |  |  | IC50 [1]: 9.68 µM; IC50 (A549 cancer cell line): 13.5 µM |
